According to patent publication US10729740B2, “Lytic-peptide-Her2/neu (Human Epidermal growth factor Receptor 2) ligand conjugates and methods of use” (Esperance Pharmaceuticals, Inc., priority 2010, dated 2020):
Ends that are not written are not given here.

Assays:
[1] = system: Her2 receptor negative MDA-MB-231 cancer cells; assay: In vitro cytotoxicity, MTT assay, 48 h, MDA-MB-231
Method: (§1) 68) to the antibody at the C-terminus by NRVRRS (SEQ. ID NO. 57) linker). Cytotoxicity was compared to a naked antibody (antibody without a lytic peptide) in Her-2 receptor positive cells (SKBR-3 and SKOV-3, human breast and ovarian cancer cells, respectively) and Her-2 receptor negative breast cancer cells (MDA-MB-231).
(§2) Cells were prepared in 96 well plates using 2,000 cells/well and were allowed to attach for 48 hours. […] All data were processed and analyzed using Graph Pad Prizm 4™ software (Graph Pad Prizm, Inc).

[2] = system: Her2 receptor positive SKBR-3 cancer cells; assay: In vitro cytotoxicity, MTT assay, 48 h, SKBR-3
Method: as §1, §2

[3] = system: Her2 receptor positive SKOV-3 cancer cells; assay: In vitro cytotoxicity, MTT assay, 48 h, SKOV-3
Method: as §1, §2

KFAKFAKKFAKFAKKFAK [Phor-18, KFAKFAK KFAKFAK KFAK]
very minimal non-specific cytotoxicity: cytotoxicity to MDA-MB-231 cells (in words) [1] | cytotoxicity to SKBR-3 cells (in words) [2] | cytotoxicity to SKOV-3 cells (in words) [3]
